{"source": "patent US20210180023A1", "about": "“CARDIAC REPAIR BY REPROGRAMMING OF ADULT CARDIAC FIBROBLASTS INTO CARDIOMYOCYTES” (The Board of Regents of the University of Texas System, priority 2017, published 2021)", "key": {"[1]": {"tested_on": "adult tail-tip fibroblasts (TTFs) from αMHC-GFP mice", "assay": "Human retroviral ORF cDNA library screen for AGHMT-mediated cardiac reprogramming (high-throughput imaging of αMHC-GFP and cTnT)", "type": "cell-based, mouse", "details": "individual cDNA expressed together with 5F (AGHMT), 9 days, Z-score ≥2 activator, ≤−2 inhibitor", "from_the_text": "Isolation of mouse tail-tip fibroblast. For isolation of adult mouse tail-tip fibroblasts, tails were cut from 8-12 weeks old adult wild-type or αMHC-GFP mouse and were minced into […] with razor blades after peeling off the superficial dermis. The minced tails were placed in fibroblast growth medium (DMEM supplemented with 10% FBS and 1% (vol/vol) penicillin/streptomycin). Tail-tip fibroblasts migrated out from the explants within 1 week and were passaged one time before use.\nConstruction of human retroviral ORFs library. Gateway-compatible Human ORFs pEntry vectors were purchased from Thermo Fisher Scientific. Gateway-compatible retroviral destination vector, pMXs-gw, was a gift from Shinya Yamanaka (Addgene plasmid #18656) (Takahashi, 2006). The inventors transferred each ORF individually into pMXs-gw by performing site-specific LR recombination using Gateway LR Clonase II Enzyme Mix kit (Thermo Fisher Scientific).\n(§1) Retroviruses production, cellular reprogramming and treatment. For retroviruses production, Platinum E cells were seeded into culture dishes (1×10^5 cells/cm2) one day before transfection in DMEM supplemented with 10% FBS and 1% penicillin/streptomycin. Cells reached ˜80% confluency on the day of transfection. DNA plasmids were transfected into Platinum E cells using FuGENE 6 transfection reagent. Twenty-four hours after transfection, wild type or αMHC-GFP tail-tip fibroblasts were seeded into culture dishes or plates that were precoated with SureCoat (Cellutron) for one hour at a density of 6×10^4/cm^2. Forty-eight hours after transfection, polybrene was added to viral medium that was filtered through a 0.45-μm filter at a concentration of […]. The mixture replaced the growth medium in the cell culture plate with tail-tip fibroblasts. The viral infection was serially repeated twice. Twenty-four hours after the second infection, the viral medium was replaced with induction medium, composed of DMEM/199 (4:1), 10% conditioned medium obtained from neonatal rat cardiomyocyte culture, 10% FBS, 5% horse serum, 1% penicillin/streptomycin, 1% nonessential amino acids, 1% essential amino acids, 1% B-27, 1% insulin-selenium-transferrin, 1% vitamin mixture, and 1% sodium pyruvate (Invitrogen). Small molecule treatments were used throughout the reprogramming process […] (Sigma).\nImmunocytochemistry. For immunocytochemistry, cells were fixed in 4% paraformaldehyde for 15 min and permeabilized with 0.1% Triton-X in room temperature. Cells were washed with PBS for three times followed by blocking with 10% goat serum for 1 hr. Cells then were incubated with mouse monoclonal anti-cardiac Troponin T (cTnT) antibody (Thermo Scientific) at 1:500 dilutions and rabbit anti-GFP antibody (Thermo Scientific) at 1:500 dilutions in 5% Goat serum for 1 hr. After washing with PBS three times, Cells then were incubated with donkey anti-mouse alexa fluor 647 (Invitrogen) at 1:500 and goat anti-rabbit Alexa fluor 488 at 1:500 (Invitrogen).\nIdentification of activators and inhibitors of cardiac reprogramming in adult fibroblasts. The inventors' previously optimized cardiac reprogramming protocol with five factors (AGHMT, also called 5F) was able to reprogram ˜3% efficiency of adult TTFs to iCMs as measured by activation of a cardiac-specific αMHC-GFP transgene and cardiac troponin T (cTnT) immunostaining (Zhou et al., 2015). To identify additional regulators of cardiac reprogramming, the inventors created a retroviral expression library consisting of 1,052 open reading frame (ORF) cDNAs representing 786 human transcription factor, cytokine, epigenetic regulator and nuclear receptor genes (Table 51). The inventors screened this expression library for activators and inhibitors of cardiac reprogramming by expressing individual cDNAs together with 5F in isolated TTFs from αMHC-GFP mice, as schematized in FIG. 1A. […]"}, "[2]": {"tested_on": "adult TTFs", "assay": "q-PCR of marker transcripts in retrovirally reprogrammed adult TTFs", "type": "cell-based, mouse", "details": "ZNF281 added to 5F, versus 5F", "experimental": "as §1\nQuantitative mRNA measurement. Total RNA was extracted using TRIzol (Invitrogen) according vender's protocol. RNAs were retrotranscribed to cDNA using iScript Supermix (Bio-Rad). qPCR was performed using Kapa Sybr Fast (Kapa Biosystems). mRNA levels were normalized by comparison to Gapdh mRNA.\nZNF281 enhances cardiac reprogramming of adult fibroblasts. PHF7 and ZNF281 were the two strongest activators identified from retroviral cDNA expression screen with 5F (FIG. 1D; Table S2). PHF7 is only expressed in the male germ line (Yang et al., 2012), whereas ZNF281 has a broad expression pattern with enriched expression in the heart (FIG. 51). The inventors therefore focused their initial attention on ZNF281 and explored its ability to enhance the activity of 5F. They refer to the reprogramming mix of 5F plus ZNF281 as 6F. […] The addition of ZNF281 to 5F increased the expression of GFP and cTnT in αMHC-GFP CFs evaluated by immunocytochemistry after 7 days of reprogramming (FIG. 10A). […]\nCo-repression of inflammatory genes by ZNF281 and NuRD complex components. […] Addition of NuRD complex subunits also promoted cardiac reprogramming, as measured by flow cytometry using the cardiac markers αMHC-GFP and cTnT (FIG. 5B, FIGS. S2A-B)."}, "[3]": {"tested_on": "αMHC promoter (αMHC-Luciferase)", "assay": "αMHC-luciferase reporter assay in HEK293 cells", "type": "cell-based", "from_the_text": "To determine if ZNF281 could directly activate cardiac genes, the inventors examined the ability of ZNF281 to activate a luciferase reporter controlled by the αMHC promoter (αMHC-Luciferase)."}}}
{"substance": "Zinc finger protein 281 [ZNF281]", "values": [{"measurement": "cTnT Z-score", "setting": "[1]", "result": 7.0}, {"measurement": "αMHC Z-score", "setting": "[1]; αMHC-GFP", "result": 2.9}, {"measurement": "decrease of Col1a2 expression", "setting": "[2]", "result": "~30", "unit": "%"}, {"measurement": "decrease of Sox9 expression", "setting": "[2]", "result": "~60", "unit": "%"}, {"measurement": "increase of Actc1 expression", "setting": "[2]", "result": "~20", "unit": "fold"}, {"measurement": "increase of Myh6 expression", "setting": "[2]", "result": "~120", "unit": "fold"}, {"measurement": "activation of αMHC-Luciferase reporter", "setting": "[3]; ZNF281 alone", "result": "~7", "unit": "fold"}, {"measurement": "activation of αMHC-Luciferase reporter", "setting": "[3]; ZNF281 co-expressed with GATA4", "result": "~15", "unit": "fold"}]}
